Where two headings read alike, the source gives them in different places.
Tests used:
[1] = system: VZV (Strain 4400/95); conditions: RPE cells
[2] = system: HSV-1 (McIntyre Strain); assay: HSV-1 replication in human foreskin fibroblasts (virus titre); assay type: cell-based, Herpes Simplex virus; conditions: for Virus titre: human fibroblasts; for Reduction factor: virus titre vs untreated
Experimental: FIG. 1A relates to the concentration of S-acetyl glutathione of 20 mM, and FIG. 1B to the concentration of 10 mM. […] With the evaluation model used, a combination index of less than 1 signifies a synergistic effect, a combination index equal to 1 an additive effect, and a combination index of greater than 1 an antagonistic effect.

[3] = S-acetyl glutathione 10 mM alone
[4] = S-acetyl glutathione 20 mM alone

| Compound | Plaque number [1, 3] [%] | Plaque number [1, 4] [%] | Virus titre [2, 3] | Reduction factor [2, 3] | Virus titre [2, 4] | Reduction factor [2, 4] | Concentration from which effective against HSV-1 ([2]; S-acetyl glutathione alone) [mM] | Virus titre ([2]; ACV 0.5 μM alone) | Reduction factor ([2]; ACV 0.5 μM alone) | Virus titre ([2]; ACV 1 μM alone) | Reduction factor ([2]; ACV 1 μM alone) | Virus titre ([2]; ACV 2 μM alone) | Reduction factor ([2]; ACV 2 μM alone) | Effectiveness against HSV-1 ([2]; ACV alone, especially in the concentration of 2 μM) |
| --- | --- | --- | --- | --- | --- | --- | --- | --- | --- | --- | --- | --- | --- | --- |
| CC(=O)SC[C@H](NC(=O)CC[C@H](N)C(=O)O)C(=O)NCC(=O)O [S-acetyl glutathione] | 59 | 52 | 1.5 × 10^6 TCID60/ml | 14 | 2.4 × 10^5 TCID60/ml | 91 | ≥ 10 |  |  |  |  |  |  |  |
| Nc1nc2c(ncn2COCCO)c(=O)[nH]1 [ACV, 9-[(2-hydroxyethoxy)methyl)guanine] |  |  |  |  |  |  |  | 3.1 × 10^6 TCID60/ml | 6.8 | 3.3 × 10^5 TCID60/ml | 64 | 3.8 × 10^3 TCID60/ml | 5526 | clear effectiveness |

From patent US6448227B1, “Therapeutically effective substance mixture” (priority 1999, dated 2002)
